From ChEMBL document CHEMBL1151462, “Mosaic tetracycline resistance genes and their flanking regions in Bifidobacterium thermophilum and Lactobacillus johnsonii” (2008)
Converted amounts (≈) assume the structure as drawn.

Key:
Format in all cases: functional
[1] = system: Bifidobacterium thermophilum; experiment: Antibacterial activity against Bifidobacterium thermophilum B0219 by broth microdilution method
[2] = system: Bifidobacterium thermophilum; experiment: Antibacterial activity against Bifidobacterium thermophilum B0241 by broth microdilution method
[3] = system: Bifidobacterium thermophilum; experiment: Antibacterial activity against Bifidobacterium thermophilum B0242 by broth microdilution method
[4] = system: Bifidobacterium thermophilum; experiment: Antibacterial activity against Bifidobacterium thermophilum B0253 by broth microdilution method
[5] = system: Bifidobacterium thermophilum; experiment: Antibacterial activity against Bifidobacterium thermophilum B0256 by broth microdilution method
[6] = system: Lactobacillus johnsonii; experiment: Antibacterial activity against Lactobacillus johnsonii L0077 by Etest

- MIC [1]: 128 µg/mL (≈ 288 µM)
- MIC [2]: 128 µg/mL (≈ 288 µM)
- MIC [3]: 256 µg/mL (≈ 576 µM)
- MIC [4]: 128 µg/mL (≈ 288 µM)
- MIC [5]: 128 µg/mL (≈ 288 µM)
- MIC [6]: > 256 µg/mL
Structure (SMILES): CN(C)[C@@H]1C(O)=C(C(N)=O)C(=O)[C@@]2(O)C(O)=C3C(=O)c4c(O)cccc4[C@@](C)(O)[C@H]3C[C@@H]12 [TETRACYCLINE]
